In patent publication US11279733B2, “Peptide antibiotics” (priority 2017, dated 2022):
Values after ≈ are worked out from the molar mass of the structure shown. Read-outs that look alike come from different tables or passages of the source. Positions of bridges follow the written chain, without caps; N, C: chain ends. Non-standard residues stand in square brackets, D forms with d. Residues, ends and D or L forms follow the SMILES beside them. *: point of attachment. Decanoyl(3R-OH) = CCCCCCC[C@@H](O)CC(=O)*; dDab = NCC[C@@H](N)C(=O)O; Dab = NCC[C@H](N)C(=O)O; Pentanoyl = CCCCC(=O)*

Experiments:
E. coli ATCC 25922 = settings: ATCC 25922
Procedure, shortened: (§1)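 Mid-log cultures grown in Mueller Hinton broth at 37° C were tested by 2-fold broth microdilution at 5×10^5 CFU/mL final. Compounds were dissolved in water and tested over a final range of 32 to 0.015 μg/mL.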

A. baumannii ATCC 19606 = settings: ATCC 19606
Procedure, shortened: as §1

[1] = test system: K. pneumoniae ATCC 700603, MDR; settings: ATCC 700603
Procedure, shortened: as §1

[2] = test system: P. aeruginosa GN_043, PmxR
Procedure, shortened: as §1

K. pneumoniae ATCC 13883 = settings: ATCC 13883
Procedure, shortened: as §1

[3] = test system: K. pneumoniae ATCC BAA-2146, NDM-1 pos; settings: ATCC BAA-2146
Procedure, shortened: as §1

P. aeruginosa ATCC 27853 = settings: ATCC 27853
Procedure, shortened: as §1

in vitro = settings: human
Experimental: Cytotoxicity of the synthesised peptides was evaluated by comparison with commercially available colistin (polymyxin E), polymyxin B (Sigma chemical Co., St. Louis, Mo., U.S.A.) and synthetic octapeptin C4 by conducting lactate dehydrogenase (LDH) assay. CC50 values calculated based on curve fitting of dose dependent inhibition of cell growth represented the cytotoxicity of the peptide. Human kidney 2 (HK2) cells were seeded as 2000 cells per well in a 384 well cell culture plate in a final volume of 20 μL in DMEM/F12 medium (Invitrogen #11330057), in which 10% of FBS was added. Cells were incubated for 24 hours at 37° C., 5% CO2 to allow cells to attach to the plates. Similar conditions were employed for HEK293 and HepG2 cytotoxicity assays.
Colistin and polymyxin B were tested from a range of 2 mM to 0.9 μM. 120 μL of the 1 mM stock solutions in water of each synthesised peptide were freeze-dried and processed for LDH assay. After freeze-dry procedure, the compounds were reconstituted into 600 μM solutions using culture media. All tested compounds were diluted from 600 μM to 0.27 μM in 3-fold dilutions. Then 20 μL of each dilution was added into 20 uL of culture medium in quadruplicate to reach the final concentrations. The cells were incubated with the compounds for 24 h at 37° C., 5% CO2. After the incubation, 5 μL of culture medium was added to 50 μL of LDH assay buffer and incubated for 1 h at room temperature. The absorbance was read at 450 nm using Polarstar. The data was then analysed by Prism software. […] Nephrotoxicity Assessment in Human Proximal Tubule Cells.

[4] = test system: P. aeruginosa GN_105, PmxR; settings: GN 105, PmxR
Procedure, shortened: as §1

SMILES | MIC E. coli ATCC 25922 (E. coli ATCC 25922) | MIC A. baumannii ATCC 19606 (A. baumannii ATCC 19606) | MIC K. pneumoniae ATCC 700603, MDR [1] | MIC P. aeruginosa GN_043, PmxR ([2]; P. aeruginosa GN_043, PmxR) | MIC K. pneumoniae ATCC 13883 (K. pneumoniae ATCC 13883) | MIC K. pneumoniae ATCC BAA-2146, NDM-1 pos [3] | MIC P. aeruginosa ATCC 27853 (P. aeruginosa ATCC 27853) | CC50 at 24 h (in vitro) | MIC, E. coli ATCC 25922 (E. coli ATCC 25922) | MIC, A. baumannii ATCC 19606 (A. baumannii ATCC 19606) | MIC, K. pneumoniae ATCC 700603, MDR [1] | MIC P. aeruginosa GN_043, PmxR ([2]; Table 6, polymyxin-resistant) | MIC, K. pneumoniae ATCC 13883 (K. pneumoniae ATCC 13883) | MIC, K. pneumoniae ATCC BAA-2146, NDM-1 pos [3] | MIC, P. aeruginosa ATCC 27853 (P. aeruginosa ATCC 27853) | MIC P. aeruginosa GN_043, PmxR [2] | MIC P. aeruginosa GN_105, PmxR [4] | MIC P. aeruginosa GN_043, PmxR ([2]; polymyxin-resistant)
CCCCCCC[C@@H](O)CC(=O)N[C@H](CO)C(=O)N[C@H]1CCNC(=O)[C@H]([C@@H](C)O)NC(=O)[C@H](CCN)NC(=O)[C@H](CCN)NC(=O)[C@H](CC(C)C)NC(=O)[C@@H](Cc2ccccc2)NC(=O)[C@H](CCN)NC1=O [compound 754, 3(R)OH-nC9CO-D-Ser-cyc[L-Dab-L-Dab-D-Phe-L-Leu-L-Dab-L-Dab-L-Thr]] ({Decanoyl(3R-OH)}-[dS][Dab][Dab][dF]L[Dab][Dab]T; lactam 2-C) | 32 µg/mL (≈ 31.4 µM) | 16 µg/mL (≈ 15.7 µM) | 32 µg/mL (≈ 31.4 µM) | >32 µg/mL | 32 µg/mL (≈ 31.4 µM) | 32 µg/mL (≈ 31.4 µM) | 4 µg/mL (≈ 3.92 µM) | 154 µM |  |  |  |  |  |  |  |  |  | 
CCCCCCC[C@@H](O)CC(=O)N[C@H](CO)C(=O)N[C@H]1CCNC(=O)[C@H](CC(C)C)NC(=O)[C@H](CCN)NC(=O)[C@H](CCN)NC(=O)[C@H](CC(C)C)NC(=O)[C@@H](Cc2ccccc2)NC(=O)[C@H](CCN)NC1=O [compound 918, 3(R)OH-nC9CO-D-Ser-cyc[L-Dab-L-Dab-D-Phe-L-Leu-L-Dab-L-Dab-L-Leu]] ({Decanoyl(3R-OH)}-[dS][Dab][Dab][dF]L[Dab][Dab]L; lactam 2-C) |  |  |  |  |  |  |  | 113 µM | 8 µg/mL (≈ 7.76 µM) | 4 µg/mL (≈ 3.88 µM) | 8 µg/mL (≈ 7.76 µM) | >32 µg/mL | 8 µg/mL (≈ 7.76 µM) | 4 µg/mL (≈ 3.88 µM) | 8 µg/mL (≈ 7.76 µM) |  |  | 
CCCCC(=O)N[C@H](CCN)C(=O)N[C@H]1CCNC(=O)[C@H](CC(C)C)NC(=O)[C@H](CCN)NC(=O)[C@H](CCN)NC(=O)[C@H](CC(C)C)NC(=O)[C@@H](Cc2ccccc2)NC(=O)[C@H](CCN)NC1=O [compound 919, C4CO-D-Dab-cyc[L-Dab-L-Dab-D-Phe-L-Leu-L-Dab-L-Dab-L-Leu]] (Pentanoyl-[dDab][Dab][Dab][dF]L[Dab][Dab]L; lactam 2-C) | 32 µg/mL (≈ 33.4 µM) | 16 µg/mL (≈ 16.7 µM) | >32 µg/mL |  | 32 µg/mL (≈ 33.4 µM) | 16 µg/mL (≈ 16.7 µM) | 2 µg/mL (≈ 2.09 µM) | > 300 µM |  |  |  |  |  |  |  | >32 µg/mL |  | 
CCCCCCC[C@@H](O)CC(=O)N[C@H](CCN)C(=O)N[C@H]1CCNC(=O)[C@H](Cc2ccccc2)NC(=O)[C@H](CCN)NC(=O)[C@H](CCN)NC(=O)[C@H](CC(C)C)NC(=O)[C@@H](Cc2ccccc2)NC(=O)[C@H](CCN)NC1=O [compound 5004, 3(R)OH-nC9CO-D-Dab-cyc[L-Dab-L-Dab-D-Phe-L-Leu-L-Dab-L-Dab-L-Phe]] ({Decanoyl(3R-OH)}-[dDab][Dab][Dab][dF]L[Dab][Dab]F; lactam 2-C) | 8 µg/mL (≈ 7.42 µM) | 4 µg/mL (≈ 3.71 µM) | 8 µg/mL (≈ 7.42 µM) |  | 4 µg/mL (≈ 3.71 µM) | 4 µg/mL (≈ 3.71 µM) | 4 µg/mL (≈ 3.71 µM) | 23 µM |  |  |  |  |  |  |  |  | 8 µg/mL (≈ 7.42 µM) | 2 µg/mL (≈ 1.85 µM)
